Source: patent US20240158392A1 (Janssen Biotech, Inc., priority 2021, published 2024)

What was measured:
[1] = target: T1, SIK2 (Homo sapiens, UniProt Q9H0K1); assay: SIK2 Enzymatic Assay Version 1 (ADP Glo); assay type: biochemical; settings: enzyme 0.6 nM, 160 μM ATP and 140 μM HDAC5tide (each 2× final concentration); 30 minutes pre-incubation, 4 hours; ADPGlo luminescence; read-out: SIK2 ADP Glo IC50 (μM) (Test Example 1)
Method in brief: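 Room-temperature ADP-Glo luminescence assay; SIK2 added at 0.6 nM (2× final) and preincubated with compound for 30 min. Reaction stopped with ADP-Glo Reagent for 40 min, then detection reagent for at least 30 min; no-peptide (ATP-only) wells served as negative control.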

[2] = target: T1, SIK2; assay: SIK2 Enzymatic Assay High Version 2 (High ATP); assay type: biochemical
Method in brief: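 At room temperature, enzyme (6 nM, 2× final) was preincubated with compound for 30 min, then 6 mM ATP and 400 μM HDAC5tide (both 2× final) were added for 2 h. ADP formed was measured by ADP-Glo Max (2 h reagent, 1 h detection) using luminescence.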

T1 sequence (Q9H0K1 whole entry, species assumed): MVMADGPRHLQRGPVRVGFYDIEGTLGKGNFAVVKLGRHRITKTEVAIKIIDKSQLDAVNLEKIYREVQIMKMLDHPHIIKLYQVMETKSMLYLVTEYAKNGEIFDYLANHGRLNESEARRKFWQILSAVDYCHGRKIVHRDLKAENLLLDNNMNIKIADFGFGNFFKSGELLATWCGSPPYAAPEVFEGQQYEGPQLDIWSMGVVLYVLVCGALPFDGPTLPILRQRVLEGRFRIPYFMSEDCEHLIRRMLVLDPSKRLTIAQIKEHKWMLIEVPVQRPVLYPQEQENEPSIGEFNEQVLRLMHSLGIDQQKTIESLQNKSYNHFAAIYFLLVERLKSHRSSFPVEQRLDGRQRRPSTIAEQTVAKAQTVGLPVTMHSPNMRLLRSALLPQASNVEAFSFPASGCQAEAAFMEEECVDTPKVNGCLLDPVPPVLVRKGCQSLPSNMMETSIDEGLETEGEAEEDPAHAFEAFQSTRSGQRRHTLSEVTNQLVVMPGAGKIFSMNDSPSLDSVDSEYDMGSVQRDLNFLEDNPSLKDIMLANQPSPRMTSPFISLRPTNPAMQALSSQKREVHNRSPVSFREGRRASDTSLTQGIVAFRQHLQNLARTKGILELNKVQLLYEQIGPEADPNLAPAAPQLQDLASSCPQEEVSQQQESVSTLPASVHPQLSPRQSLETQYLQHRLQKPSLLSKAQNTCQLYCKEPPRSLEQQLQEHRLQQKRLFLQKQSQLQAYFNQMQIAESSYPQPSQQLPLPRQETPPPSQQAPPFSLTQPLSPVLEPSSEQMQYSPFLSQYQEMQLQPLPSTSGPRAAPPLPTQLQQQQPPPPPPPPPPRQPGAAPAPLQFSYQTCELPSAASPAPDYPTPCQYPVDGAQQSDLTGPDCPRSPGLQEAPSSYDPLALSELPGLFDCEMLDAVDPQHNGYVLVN

Row | Structure (SMILES) | IC50 [1] [µM] | IC50 [2] [nM]
1 | N#Cc1cc(-c2ccn3nc(NC(=O)C4CC4)cc3c2)c(OCC(O)(C(F)(F)F)C(F)(F)F)cn1 [Example 99, N-[5-[2-cyano-5-[3,3,3-trifluoro-2-hydroxy-2-(trifluoromethyl)propoxy]-4-pyridyl]pyrazolo[1,5-a]pyridin-2-yl]cyclopropanecarboxamide] | 0.00295 | 37.6
2 | CC#Cc1cc(-c2ccn3nc(NC(=O)C4CC4)cc3c2)c(O[C@H]2CC[C@H](O)CC2)cn1 [Example 185, trans-N-[5-[5-(4-hydroxycyclohexoxy)-2-prop-1-ynyl-4-pyridyl]pyrazolo[1,5-a]pyridin-2-yl]cyclopropanecarboxamide] | 0.000366 | < 0.838
3 | Cc1cc(-c2ccn3nc(Nc4cnn(C)c4)cc3c2)c(OC2CN(C)C2)cn1 [Example 568, 5-[2-methyl-5-(1-methylazetidin-3-yl)oxy-4-pyridyl]-N-(1-methylpyrazol-4-yl)pyrazolo[1,5-a]pyridin-2-amine] | 0.00471 | 93.3
4 | N#Cc1cc(-c2ccn3nc(NC(=O)C4CC4)cc3c2)c(OCC2CNC(=O)C2)cn1 (racemic) [Example 33, rac-N-(5-(2-cyano-5-((5-oxopyrrolidin-3-yl)methoxy)pyridin-4-yl)pyrazolo[1,5-a]pyridin-2-yl)cyclopropanecarboxamide] | 0.00416 | 93.1
5 | N#Cc1cc(-c2ccn3nc(NC(=O)C4CC4)cc3c2)c(OC[C@H](O)C(F)(F)F)cn1 [Example 97, N-[5-[2-cyano-5-[(2S)-3,3,3-trifluoro-2-hydroxy-propoxy]-4-pyridyl]pyrazolo[1,5-a]pyridin-2-yl]cyclopropanecarboxamide] | 0.00609 | 114
6 | Cc1cc(-c2ccn3nc(NC(=O)C4CC4)cc3c2)c(OCC2(F)CN(C)C2)cn1 [Example 169, N-[5-[5-[(3-fluoro-1-methyl-azetidin-3-yl)methoxy]-2-methyl-4-pyridyl]pyrazolo[1,5-a]pyridin-2-yl]cyclopropanecarboxamide] | 0.00307 | 50.7

More lines, now with the values ahead:

Row | IC50 [1] [µM] | IC50 [2] [nM] | Structure (SMILES)
7 | 0.00308 | 52.1 | Cc1cc(-c2ccn3nc(NC(=O)C4CC4)cc3c2)c(O[C@H]2CC[C@@H](O)C2)cn1 (single isomer, unassigned) [Example 179, cis-N-(5-(5-(((1*S,3*R)-3-hydroxycyclopentyl)oxy)-2-methylpyridin-4-yl)pyrazolo[1,5-a]pyridin-2-yl)cyclopropanecarboxamide]
8 | 0.00116 | 23.4 | N#Cc1cc(-c2ccn3nc(NC(=O)C4CC4)cc3c2)c(OCC2CCNC2)cn1 (stereo in doubt) [Example 45, N-[5-[2-Cyano-5-[[(3R)-pyrrolidin-3-yl]methoxy]-4-pyridyl]pyrazolo[1,5-a]pyridin-2-yl]cyclopropanecarboxamide]
9 | 0.000337 | 6.58 | N#CCN1CC[C@H](Oc2cnc(C#N)cc2-c2ccn3nc(NC(=O)C4CC4)cc3c2)C1 [Example 114, (S)—N-[5-[2-cyano-5-[(3S)-1-(cyanomethyl)pyrrolidin-3-yl]oxy-4-pyridyl]pyrazolo[1,5-a]pyridin-2-yl]cyclopropanecarboxamide]
10 | 0.014 | 305 | CN1CCC[C@H](COc2cnc(C#N)cc2-c2ccn3nc(NC(=O)C4CC4)cc3c2)C1 [Example 38, (S)—N-(5-(2-cyano-5-((1-methylpiperidin-3-yl)methoxy)pyridin-4-yl)pyrazolo[1,5-a]pyridin-2-yl)cyclopropanecarboxamide]
11 | 0.00358 | 60.9 | Cc1cc(-c2ccn3nc(NC(=O)C4CC4)cc3c2)c(O[C@@H]2CC[C@H](O)C2)cn1 (single isomer, unassigned) [Example 180, cis-N-(5-(5-(((1*R,3*S)-3-hydroxycyclopentyl)oxy)-2-methylpyridin-4-yl)pyrazolo[1,5-a]pyridin-2-yl)cyclopropanecarboxamide]
